The record followed here is publication PMC10203105 (Communications Biology, 2023).

What is called IC50 is the point on the concentration scale where inhibition reaches its midpoint. A low value points to greater potency in that assay. In general, Km refers to the concentration of substrate that gives half-maximal velocity.

For data set [1], the target named is T1, AtDHDPR2 (dihydrodipicolinate reductase 2) (Arabidopsis thaliana, UniProt Q8LB01).
T1 construct: gene DAPB2; excludes the 53-amino-acid chloroplast transit peptide; tag cleaved
T1 sequence (Q8LB01 54-349): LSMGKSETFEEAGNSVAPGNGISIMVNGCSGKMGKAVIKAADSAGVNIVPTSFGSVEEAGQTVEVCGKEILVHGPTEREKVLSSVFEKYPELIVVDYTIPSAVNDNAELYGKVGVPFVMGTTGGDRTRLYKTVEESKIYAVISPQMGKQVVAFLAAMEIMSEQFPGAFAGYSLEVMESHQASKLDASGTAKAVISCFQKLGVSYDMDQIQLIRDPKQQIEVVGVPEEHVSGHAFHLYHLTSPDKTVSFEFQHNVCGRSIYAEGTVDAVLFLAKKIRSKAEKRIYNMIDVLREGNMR
In words: DHDPS-DHDPR coupled spectrophotometric assay (NADPH oxidation, […] nm). It counts as biochemical.

For data set [2], the target named is T2, AtDHDPR1 (dihydrodipicolinate reductase 1) (Arabidopsis thaliana, UniProt O80574).
T2 construct: gene DAPB1; excludes the first 51 amino acids (chloroplast transit peptide); tag cleaved
T2 sequence (O80574 52-347): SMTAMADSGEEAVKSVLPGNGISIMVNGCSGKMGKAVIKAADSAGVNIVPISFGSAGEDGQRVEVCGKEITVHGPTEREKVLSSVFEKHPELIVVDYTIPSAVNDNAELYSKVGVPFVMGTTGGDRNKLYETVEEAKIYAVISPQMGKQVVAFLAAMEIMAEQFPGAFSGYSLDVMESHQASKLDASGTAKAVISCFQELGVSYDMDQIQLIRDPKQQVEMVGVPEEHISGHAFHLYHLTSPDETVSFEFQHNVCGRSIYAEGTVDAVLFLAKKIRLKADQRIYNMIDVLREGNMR
The description is as above. It counts as biochemical.

Substrate in data set [3]: NC(=O)C1=CN([C@@H]2O[C@H](COP(=O)(O)OP(=O)(O)OC[C@H]3O[C@@H](n4cnc5c(N)ncnc54)[C@H](OP(=O)(O)O)[C@@H]3O)[C@@H](O)[C@H]2O)C=CC1
Put plainly: purified protein. The conditions noted are these: varied: cofactor.

Substrate in data set [4]: O=C(O)C1=NC(C(=O)O)CC=C1
In words: purified protein. The conditions noted are these: NADPH.

Regarding `O=C(O)c1cccc(C(=O)O)n1` [2,6-PDC, 2,6-pyridinedicarboxylic acid], the figures for the IC50 in data set [1] and in data set [2] were 470 µM and 140 µM, respectively.

B1: AtDHDPR1 (dihydrodipicolinate reductase 1) (Arabidopsis thaliana) (protein)
chain: SMTAMADSGEEAVKSVLPGNGISIMVNGCSGKMGKAVIKAADSAGVNIVPISFGSAGEDGQRVEVCGKEITVHGPTEREKVLSSVFEKHPELIVVDYTIPSAVNDNAELYSKVGVPFVMGTTGGDRNKLYETVEEAKIYAVISPQMGKQVVAFLAAMEIMAEQFPGAFSGYSLDVMESHQASKLDASGTAKAVISCFQELGVSYDMDQIQLIRDPKQQVEMVGVPEEHISGHAFHLYHLTSPDETVSFEFQHNVCGRSIYAEGTVDAVLFLAKKIRLKADQRIYNMIDVLREGNMR
Regarding B1, the Michaelis constant (Km) came out at 16 ± 2.6 µM in “purified protein [3]” and 37 ± 6.5 µM in “purified protein [4]”.
